Reference: patent US6358942B1, “Phenyloxazolidinones having a c-c bond 4-8 membered heterocyclic rings” (Pharmacia & Upjohn Company, priority 1995, dated 2002)

These molecules were tested on Staphylococcus aureus or Streptococcus species (assay: Murine Assay: in vivo antimicrobial activity, survival of mice infected intraperitoneally with bacteria). Conditions: Table 1; female mice; treatment 1 h and 5 h after infection, oral intubation or subcutaneous; survival over six days; probit analysis of mortality ratios.
Method: Antimicrobial activity was tested in vivo using the Murine Assay procedure. Groups of female mice (six mice of 18-20 grams each) were injected intraperitoneally with bacteria which were thawed just prior to use and suspended in brain heart infusion with 4% brewers yeast (Staphylococcus aureus) or brain heart infusion (Streptococcus species). Antibiotic treatment at six dose levels per drug was administered one hour and five hours after infection by either oral intubation or subcutaneous routes. Survival was observed daily for six days. ED50 values based on mortality ratios were calculated using probit analysis. The subject compounds are compared against well-known antimicrobials vancomycin and U-100592 as controls. See “Upjohn Oxazolidinone Antibacterial Agent”, posters presented at the 35th Interscience Conference on Antimicrobial Agents and Chemotherapy.

Compared with `COC(=O)N1CC(C)(c2ccc(N3C[C@H](CNC(C)=O)OC3=O)cc2F)C1` [Example 3], `CC(=O)NC[C@H]1CN(c2ccc(C3(C)CN(C(C)=O)C3)c(F)c2)C(=O)O1` [Example 10, (S)-N-[[3-[3-Fluoro-4-[1-acetyl-3-(3-methyl)-azetidinyl]-phenyl]-2-oxo-5-oxazolidinyl]methyl]-acetamide] is 4-fold higher in “ED50” value: 5.00 mg/kg for the first, 20.00 mg/kg for the second.

Going from `CC(=O)NC[C@H]1CN(c2ccc(C3(C)CN(C=O)C3)c(F)c2)C(=O)O1` [Example 5, (S)-N-[[3-[3-Fluoro-4-[1-(formyl)-3-(3-methyl)-azetidinyl]-phenyl]-2-oxo-5-oxazolidinyl]methyl]-acetamide] to `CC(=O)NC[C@H]1CN(c2ccc(C3(C)CN(C(=O)CO)C3)c(F)c2)C(=O)O1` [Example 16, (S)-N-[[3-[3-Fluoro-4-[1-(hydroxyacetyl)-3-(3-methyl)azetidinyl]-phenyl]-2-oxo-5-oxazolidinyl]methyl]-acetamide], the “ED50” value rises from 3.60 mg/kg to 17.00 mg/kg (4.7-fold).

First: CC(=O)NC[C@H]1CN(c2ccc(C3(C)CN(CC#N)C3)c(F)c2)C(=O)O1 [Example 12, (S)-N-[[3-[3-Fluoro-4-[1-(cyanomethyl)-3-(3-methyl) -azetidinyl]-phenyl]-2-oxo-5-oxazolidinyl]methyl]-acetamide]
Second: CC(=O)NC[C@H]1CN(c2ccc(C3=CCOCC3)c(F)c2)C(=O)O1 [Example 47, (S)-(−)-N-[[3-[4-(3,6-Dihydro-2H-pyran-4-yl)-3-fluoropheny]-2-oxo-5-oxazolidinyl]methyl]acetamide]
The “ED50” value of the first is 2.8-fold higher: 20.00 mg/kg for the first, 7.10 mg/kg for the second.

`CC(=O)NC[C@H]1CN(c2ccc(C3=CCN(C(=O)CO)CC3)c(F)c2)C(=O)O1` [Example 40, (S)-(−)-N-[[3-[4-[1-(Hydroxyacetyl)-3,6-dihydro-2H-pyridin-4-yl]-3-fluoropheny]-2-oxo-5-oxazolidinyl]methyl]acetamide] was tested, and the “ED50” value was 1.00 mg/kg.

`COCC(=O)N1CC(C)(c2ccc(N3C[C@H](CNC(C)=O)OC3=O)cc2F)C1` [Example 4, (S)-N-[[3-[3-Fluoro-4-[1-(methoxyacetyl)-3-(3-methyl) -azetidinyl]-phenyl]-2-oxo-5-oxazolidinyl]methyl]-acetamide] was tested, and the “ED50” value was greater than 20.00 mg/kg.
`CC(=O)NC[C@H]1CN(c2ccc(C3(C)CN(C(=O)C(Cl)Cl)C3)c(F)c2)C(=O)O1` [Example 6, (S)-N-[[3-[3-Fluoro-4-[1-(dichloroacetyl)-3-(3-methyl) -azetidinyl]-phenyl]-2-oxo-5-oxazolidinyl]methyl]-acetamide] was tested, and the “ED50” value was greater than 20.00 mg/kg.
In the case of `CC(=O)NC[C@H]1CN(c2ccc(C3(C)CN(CCF)C3)c(F)c2)C(=O)O1` [Example 11, (S)-N-[[3-[3-Fluoro-4-[1-(2-fluoroethyl)-3-(3-methyl) -azetidinyl]-phenyl]-2-oxo-5-oxazolidinyl]methyl]-acetamide], the “ED50” value is reported as greater than 20.00 mg/kg.
For `CC(=O)NC[C@H]1CN(c2ccc(C3(C)CN(c4ncc([N+](=O)[O-])s4)C3)c(F)c2)C(=O)O1` [Example 13, (S)-N-[[3-[3-Fluoro-4-[1-(5-nitro-2-thiazolyl)-3-(3-methyl) -azetidinyl]-phenyl]-2-oxo-5-oxazolidinyl]methyl]-acetamide], the “ED50” value was greater than 10.00 mg/kg.

Same assay, conditions: Table 1; female mice; treatment 1 h and 5 h after infection, oral intubation or subcutaneous; survival over six days; probit analysis of mortality ratios; read-out: ED50

Going from `CC(=O)NC[C@H]1CN(c2ccc(C3CCN(C(=O)CO)CC3)cc2)C(=O)O1` [Example 19, (S)-(−)-N-[[3-[4-[1-(Hydroxyacetyl)-4-piperidinyl]phenyl]-2-oxo-5-oxazolidinyl]methyl]acetamide] to `CC(=O)NC[C@H]1CN(c2ccc(C3CCN(C(=O)CO)CC3)c(F)c2)C(=O)O1` [Example 22, (S)-(−)-N-[[3-[4-[1-(Hydroxyacetyl)-4-piperidinyl]-3-fluorophenyl]-2-oxo-5-oxazolidinyl]methyl]acetamide], the ED50 falls from 6.8 mg/kg to 2.3 mg/kg (3-fold).

`CC(=O)NC[C@H]1CN(c2ccc(C3CCN(C(=O)COCc4ccccc4)CC3)c(F)c2)C(=O)O1` [Example 21, (S)-(−)-N-[[3-[4-[1-[(Benzyloxy)acetyl]-4-piperidinyl]-3-fluorophenyl]-2-oxo-5-oxazolidinyl]methyl]acetamide] and `CC(=O)NC[C@H]1CN(c2ccc(C3CCN(C(=O)c4cc5ccccc5[nH]4)CC3)c(F)c2)C(=O)O1` [Example 23, (S)-(−)-N-[[3-[4-[1-(Indole-2-carbonyl)-4-piperidinyl]-3-fluorophenyl]-2-oxo-5-oxazolidinyl]methyl]acetamide] cannot be ordered by ED50: greater than 20 mg/kg for the first, greater than 20 mg/kg for the second.

Compared with `CC(=O)NC[C@H]1CN(c2ccc(C3CCN(C(=O)c4ccno4)CC3)c(F)c2)C(=O)O1` [Example 24, (S)-(−)-N-[[3-[4-[1-(Isoxazole-5-carbonyl)-4-piperidinyl]-3-fluorophenyl]-2-oxo-5-oxazolidinyl]methyl]acetamide], `CC(=O)NC[C@H]1CN(c2ccc(C3CCN(C=O)CC3)c(F)c2)C(=O)O1` [Example 29, (S)-(−)-N-[[3-[4-[1-(Formyl)-4-piperidinyl]-3-fluorophenyl]-2-oxo-5-oxazolidinyl]methyl]acetamide] is lower in ED50: greater than 20 mg/kg for the first, 5 mg/kg for the second.

Going from `CC(=O)NC[C@H]1CN(c2ccc(C3CCN(CCF)CC3)c(F)c2)C(=O)O1` [Example 28, (S)-(−)-N-[[3-[4-[1-(2-Fluoroethyl)-4-piperidinyl]-3-fluorophenyl]-2-oxo-5-oxazolidinyl]methyl]acetamide] to `CC(=O)NC[C@H]1CN(c2ccc(C3CCN(C(=O)COC(C)=O)CC3)c(F)c2)C(=O)O1` [Example 34, (S)-(−)-N-[[2-Oxo-3-[3-fluoro-4-[1-[(acetoxy)acetyl]-4-piperidinyl]phenyl]-5-oxazolidinyl]methyl]acetamide], the ED50 falls from 15.3 mg/kg to 6.3 mg/kg (2.4-fold).

Going from `O=C(NC[C@H]1CN(c2ccc(C3CCN(C(=O)CO)CC3)c(F)c2)C(=O)O1)C(Cl)Cl` [Example 33, (S)-(−)-2,2-Dichloro-N-[[2-oxo-3-[3-fluoro-4-[1-(hydroxyacetyl)-4-piperidinyl]phenyl]-5-oxazolidinyl]methyl]acetamide] to `CC(=O)NC[C@H]1CN(c2ccc(C3CCN(C(=O)CO)C3)c(F)c2)C(=O)O1` (stereo partly drawn) [Example 44, (5S)-N-[[3-[3-Fluoro-4-[1-(hydroxyacetyl)-3-pyrrolidinyl]phenyl]-2-oxo-5-oxazolidinyl]methyl]acetamide], the ED50 falls from 10.6 mg/kg to 5 mg/kg (2.1-fold).

Compared with `CC(=O)NC[C@H]1CN(c2cc(F)c(C3CCN(C(=O)CO)CC3)c(F)c2)C(=O)O1` [Example 37, (S)-(−)-N-[[3-[4-[1-(Hydroxyacetyl)-4-piperidinyl]-3,5-difluorophenyl]-2-oxo-5-oxazolidinyl]methyl]acetamide], `CC(=O)NC[C@H]1CN(c2ccc(C3=CCN(C(=O)COC(C)=O)CC3)c(F)c2)C(=O)O1` [Example 39, (S)-(−)-N-[[2-Oxo-3-[3-fluoro-4-[-1-[(acetoxy)acetyl]-3,6-dihydro-2H-pyridin-4-yl]phenyl]-5-oxazolidinyl]methyl]acetamide] is 2.9-fold lower in ED50: 8.7 mg/kg for the first, 3 mg/kg for the second.

Same assay, conditions: Table 2; female mice; treatment 1 h and 5 h after infection, oral intubation or subcutaneous; survival over six days; probit analysis of mortality ratios

Going from `COC(=O)N1CCC(c2ccc(N3C[C@H](CNC(C)=O)OC3=O)cc2F)C1` (stereo partly drawn) [Example 46, (5S)-3-[4-[5-[(Acetylamino)methyl]-2-oxo-3-oxazolidinyl]-2-fluoropheny]-1-pyrrolidinecarboxylic acid methyl ester] to `CC(=O)NC[C@H]1CN(c2ccc(C3CCOCC3)c(F)c2)C(=O)O1` [Example 48, (S)-(−)-N-[[3-[4-[Tetrahydro-2H-pyran-4-yl]-3-fluoropheny]-2-oxo-5-oxazolidinyl]methyl]acetamide], the “ED50” value rises from 7.90 mg/kg to 17.50 mg/kg (2.2-fold).

`CC(=O)NC[C@H]1CN(c2ccc(C3=CCSCC3)c(F)c2)C(=O)O1` [Example 49, (S)-(−)-N-[[3-[4-(3,6-Dihydro-2H-thiopyran-4-yl)-3-fluoropheny]-2-oxo-5-oxazolidinyl]methyl]acetamide] and `CC(=O)NC[C@H]1CN(c2ccc(C3=CCS(=O)(=O)CC3)c(F)c2)C(=O)O1` [Example 50, (S)-(−)-N-[[3-[4-(3,6-Dihydro-2H-thiopyran-4-yl)-3-fluoropheny]-2-oxo-5-oxazolidinyl]methyl]acetamide S,S-dioxide] are within 1.5-fold of each other in “ED50” value: 2.40 mg/kg for the first, 2.20 mg/kg for the second.

With `CC(=O)NC[C@H]1CN(c2ccc(C3CCS(=O)(=O)CC3)c(F)c2)C(=O)O1` [Example 51, (S)-(−)-N-[[3-[3-Fluoro-4-(tetrahydro-2H-thiopyran-4-yl)phenyl]-2-oxo-5-oxazolidinyl]methyl]acetamide S,S-dioxide] the “ED50” value was 2.80 mg/kg.

Same assay, conditions: Table 2; female mice; treatment 1 h and 5 h after infection, oral intubation or subcutaneous; survival over six days; probit analysis of mortality ratios; read-out: ED50

Going from `CC(=O)NC[C@H]1CN(c2ccc(C3=CC[S+]([O-])C3)c(F)c2)C(=O)O1` (stereo partly drawn) [68(a), (5S)-N-[[3-[3-Fluoro-4-(2,5-dihydro-1-oxido-3-thienyl)-phenyl]-2-oxo-5-oxazolidinyl]methyl]acetamide] to `CC(=O)NC[C@H]1CN(c2ccc(C3=CCS(=O)(=O)C3)c(F)c2)C(=O)O1` [69(a), (S)-N-[[3-[3-Fluoro-4-(2,5-dihydro-1,1-dioxido-3-thienyl)-phenyl]-2-oxo-5-oxazolidinyl]methyl]acetamide], the ED50 rises from 3.5 mg/kg to 10 mg/kg (2.9-fold).

Going from `CC(=O)NC[C@H]1CN(c2ccc(C3=CCOCC3)cc2)C(=O)O1` [Example 52, (S)-(−)-N-[[3-[4-(3,6-Dihydro-2H-pyran-4-yl)phenyl]-2-oxo-5-oxazolidinyl]methyl]acetamide] to `CC(=O)NC[C@H]1CN(c2ccc(C3=CCSCC3)cc2)C(=O)O1` [Example 54, (S)-(−)-N-[[3-[4-(3,6-Dihydro-2H-thiopyran-4-yl)phenyl]-2-oxo-5-oxazolidinyl]methyl]acetamide], the ED50 rises from 4 mg/kg to 6.6 mg/kg (1.6-fold).

In the case of `CC(=O)NC[C@H]1CN(c2ccc(C3CCOCC3)cc2)C(=O)O1` [Example 53, (S)-(−)-N-[[3-[4-[Tetrahydro-2H-pyran-4-yl]phenyl]-2-oxo-5-oxazolidinyl]methyl]acetamide], the ED50 is reported as greater than 20 mg/kg.
